# Measured values taken from ChEMBL document CHEMBL1201862, “PubChem BioAssay data set” (2004).
#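 Where inhibition never reached the appropriate level, the endpoint shown equals the highest concentration tested. Otherwise, values were interpolated linearly from a five-concentration, 48-hour dose response in 96-well plates. Here, GI50 denotes the concentration required for 50% inhibition of growth.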 The source made the active and inactive calls. No stated cut-off is given here; in the data, active = GI50 up to about 1.1 µM and inactive = higher.
# Legend:
# Experiment in all cases: NCI anticancer screen, dose series, 48 h
# [1] = test system: HCT-15
# [2] = test system: PC-3
# [3] = test system: RXF 393
# [4] = test system: HCT-116
# [5] = test system: OVCAR-5
# [6] = test system: NCI-H460
# [7] = test system: A498
# [8] = test system: OVCAR-4
# [9] = test system: SF-268
# [10] = test system: SNB-19
# [11] = test system: K562
# [12] = test system: HOP-62
# [13] = test system: MDA-MB-435
# [14] = test system: A549
# [15] = test system: SF-295
# [16] = test system: UO-31
# [17] = test system: NCI/ADR-RES
# [18] = test system: T47D
# [19] = test system: SK-MEL-2
# [20] = test system: SK-OV-3
SMILES,GI50 [1],GI50 [2],GI50 [3],GI50 [4],GI50 [5],GI50 [6],GI50 [7],GI50 [8],GI50 [9],GI50 [10],GI50 [11],GI50 [12],GI50 [13],GI50 [14],GI50 [15],GI50 [16],GI50 [17],GI50 [18],GI50 [19],GI50 [20]
O=[N+]([O-])c1cc(-c2ccc([As](=O)(O)O)cc2)ccc1[As](=O)(O)O,> 100 µM,> 100 µM (inactive),> 100 µM (inactive),> 100 µM (inactive),> 100 µM (inactive),> 100 µM (inactive),> 100 µM (inactive),> 100 µM (inactive),> 100 µM (inactive),> 100 µM (inactive),> 100 µM (inactive),> 100 µM (inactive),> 100 µM (inactive),> 100 µM (inactive),> 100 µM (inactive),> 100 µM (inactive),> 100 µM (inactive),> 100 µM (inactive),> 100 µM (inactive),–
COC(=O)C1(C)CCCC2(C)c3cc(OC)ccc3C(=O)C(Br)C12 (stereo not given),> 10 µM,9.73 µM (inactive),9.23 µM (inactive),2.79 µM (inactive),8.02 µM (inactive),> 10 µM (inactive),> 10 µM (inactive),–,> 10 µM (inactive),> 10 µM (inactive),3.68 µM (inactive),> 10 µM (inactive),4.19 µM (inactive),> 10 µM (inactive),> 10 µM (inactive),1.84 µM (inactive),> 10 µM (inactive),> 10 µM (inactive),> 10 µM (inactive),> 10 µM (inactive)
O=C1NC(Nc2ccccc2)=NC(C(F)(F)F)(C(F)(F)F)N1,51.1 µM,20.5 µM (inactive),–,34.6 µM (inactive),42.8 µM (inactive),32.8 µM (inactive),–,39.6 µM (inactive),39.8 µM (inactive),–,49.3 µM (inactive),53.3 µM (inactive),43 µM (inactive),40.9 µM (inactive),37 µM (inactive),30.8 µM (inactive),71.1 µM (inactive),36.4 µM (inactive),19.9 µM (inactive),64 µM (inactive)
C(=C\c1ccccc1)/Cn1nc(-c2ccccc2)nc1-c1cnccn1,> 100 µM,> 100 µM (inactive),> 100 µM (inactive),> 100 µM (inactive),> 100 µM (inactive),> 100 µM (inactive),–,68.9 µM (inactive),> 100 µM (inactive),> 100 µM (inactive),> 100 µM (inactive),> 100 µM (inactive),> 100 µM (inactive),> 100 µM (inactive),> 100 µM (inactive),> 100 µM (inactive),–,> 100 µM (inactive),–,66.7 µM (inactive)
Cc1ccc(C(=O)/C=C2\Nc3ccccc3S\C2=N\CS(=O)(=O)c2ccc(C)cc2)cc1,> 10 µM,> 10 µM (inactive),–,> 10 µM (inactive),> 10 µM (inactive),–,–,4.02 µM (inactive),> 10 µM (inactive),> 10 µM (inactive),> 10 µM (inactive),7.8 µM (inactive),> 10 µM (inactive),> 10 µM (inactive),> 10 µM (inactive),–,> 10 µM (inactive),8.2 µM (inactive),–,6.89 µM (inactive)
O=C1C=CC(=O)c2c(NCC3CC3)ccc(NCC3CC3)c21,13.3 µM,46.2 µM (inactive),–,37.8 µM (inactive),59 µM (inactive),60.8 µM (inactive),60.5 µM (inactive),–,–,> 100 µM (inactive),22.5 µM (inactive),> 100 µM (inactive),19.7 µM (inactive),47.8 µM (inactive),33.7 µM (inactive),75.2 µM (inactive),64.1 µM (inactive),6.34 µM (inactive),50.4 µM (inactive),–
O=C(c1ccccc1)c1ccc2[nH]c(-c3c(Cl)c(Cl)c(Cl)c(Cl)c3C(=O)N/N=C\C=C\c3ccccc3)nc2c1,32.5 µM,42.3 µM (inactive),21.8 µM (inactive),58.6 µM (inactive),> 100 µM (inactive),–,–,26.1 µM (inactive),38.6 µM (inactive),66.2 µM (inactive),19.4 µM (inactive),54.1 µM (inactive),30.1 µM (inactive),50.1 µM (inactive),38.9 µM (inactive),39.5 µM (inactive),> 100 µM (inactive),16.5 µM (inactive),37.1 µM (inactive),> 100 µM (inactive)
CCOC(=O)CC(=O)Nc1cccc2sc3ncccc3c(=O)c12,38.4 µM,5.81 µM (inactive),3.09 µM (inactive),46 µM (inactive),20.3 µM (inactive),19.5 µM (inactive),–,83.2 µM (inactive),36.2 µM (inactive),51.3 µM (inactive),20.6 µM (inactive),33 µM (inactive),44.7 µM (inactive),18.4 µM (inactive),43.5 µM (inactive),25.7 µM (inactive),36.8 µM (inactive),3.95 µM (inactive),34.3 µM (inactive),22.4 µM (inactive)
